Measured values published in patent US20230017786A1, “DEXTR[…] A DISEASE-MODIFYING TREATMENT FOR NEUROPSYCHIATRIC DISORDERS AND DISEASES” (priority 2020, published 2023).

Legend:
[1] = molecular target: T1, human NMDA receptor GluN1-GluN2D (Homo sapiens, UniProt O15399+Q05586); assay: FLIPR calcium assay, test item effect on L-glutamate CRC, GluN1-GluN2D-CHO; assay type: cell-based
T1 construct: expressed in transfected cells; host or cells: CHO

[2] = molecular target: T2, recombinant human NMDAR GluN1 plus GluN2C (Homo sapiens, UniProt Q05586+Q14957); assay: FLIPR calcium assay, gentamicin as PAM (Example 5 Part I), GluN2C cell line; assay type: cell-based; conditions: 10 μM test item; dextromethadone in presence and absence of 10 μM gentamicin
T2 construct: expressed in transfected cells; host or cells: CHO
T2 sequence (Q14957 20-1233, other chains not shown): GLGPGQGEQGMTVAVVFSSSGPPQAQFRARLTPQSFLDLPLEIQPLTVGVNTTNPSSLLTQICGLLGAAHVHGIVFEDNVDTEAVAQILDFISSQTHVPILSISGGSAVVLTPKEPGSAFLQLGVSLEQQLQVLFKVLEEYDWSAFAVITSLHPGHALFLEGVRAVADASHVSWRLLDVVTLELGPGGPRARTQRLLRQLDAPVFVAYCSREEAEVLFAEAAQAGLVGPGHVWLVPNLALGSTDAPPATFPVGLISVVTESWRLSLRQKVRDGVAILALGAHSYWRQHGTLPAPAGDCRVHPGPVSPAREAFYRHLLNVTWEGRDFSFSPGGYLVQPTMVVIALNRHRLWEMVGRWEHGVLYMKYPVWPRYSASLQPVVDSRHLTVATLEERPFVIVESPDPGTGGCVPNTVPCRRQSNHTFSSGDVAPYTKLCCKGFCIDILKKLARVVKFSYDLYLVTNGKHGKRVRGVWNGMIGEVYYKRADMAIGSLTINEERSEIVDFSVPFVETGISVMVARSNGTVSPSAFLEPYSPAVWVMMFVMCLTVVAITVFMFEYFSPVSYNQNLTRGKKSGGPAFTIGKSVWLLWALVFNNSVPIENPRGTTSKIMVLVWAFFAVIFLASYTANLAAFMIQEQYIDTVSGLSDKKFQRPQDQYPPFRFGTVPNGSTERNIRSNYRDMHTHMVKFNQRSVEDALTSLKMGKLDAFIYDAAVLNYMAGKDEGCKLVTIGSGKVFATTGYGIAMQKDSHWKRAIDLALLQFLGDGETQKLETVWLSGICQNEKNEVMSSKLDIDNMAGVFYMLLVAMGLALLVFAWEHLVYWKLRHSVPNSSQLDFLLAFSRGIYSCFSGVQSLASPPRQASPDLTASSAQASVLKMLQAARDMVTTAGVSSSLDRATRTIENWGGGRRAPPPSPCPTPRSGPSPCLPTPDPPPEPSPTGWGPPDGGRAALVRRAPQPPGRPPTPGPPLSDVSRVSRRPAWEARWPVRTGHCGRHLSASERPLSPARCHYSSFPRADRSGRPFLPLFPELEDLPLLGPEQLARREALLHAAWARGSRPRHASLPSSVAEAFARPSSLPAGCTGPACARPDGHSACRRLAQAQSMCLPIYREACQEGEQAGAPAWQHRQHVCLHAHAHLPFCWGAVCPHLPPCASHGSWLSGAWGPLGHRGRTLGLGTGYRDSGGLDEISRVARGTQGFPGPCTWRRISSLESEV
From the text: A FLIPR calcium assay was used to profile gentamicin using stable cell lines expressing diheteromeric recombinant human NMDARs, containing GluN1 plus one amongst GluN2A, GluN2B, GluN2C or GluN2D subunit.

[3] = molecular target: T3, human NMDA receptor GluN1-GluN2B (Homo sapiens, UniProt Q05586+Q13224); assay: FLIPR calcium assay, quinolinic acid, gentamicin, dextromethadone (Example 5 Part II), GluN1-GluN2B-CHO; assay type: cell-based; conditions: 10 μM glycine; for calcium response (mean±SEM): GluN2B, n=42
T3 construct: expressed in transfected cells; host or cells: CHO
T3 sequence (Q13224 27-1484, other chains not shown): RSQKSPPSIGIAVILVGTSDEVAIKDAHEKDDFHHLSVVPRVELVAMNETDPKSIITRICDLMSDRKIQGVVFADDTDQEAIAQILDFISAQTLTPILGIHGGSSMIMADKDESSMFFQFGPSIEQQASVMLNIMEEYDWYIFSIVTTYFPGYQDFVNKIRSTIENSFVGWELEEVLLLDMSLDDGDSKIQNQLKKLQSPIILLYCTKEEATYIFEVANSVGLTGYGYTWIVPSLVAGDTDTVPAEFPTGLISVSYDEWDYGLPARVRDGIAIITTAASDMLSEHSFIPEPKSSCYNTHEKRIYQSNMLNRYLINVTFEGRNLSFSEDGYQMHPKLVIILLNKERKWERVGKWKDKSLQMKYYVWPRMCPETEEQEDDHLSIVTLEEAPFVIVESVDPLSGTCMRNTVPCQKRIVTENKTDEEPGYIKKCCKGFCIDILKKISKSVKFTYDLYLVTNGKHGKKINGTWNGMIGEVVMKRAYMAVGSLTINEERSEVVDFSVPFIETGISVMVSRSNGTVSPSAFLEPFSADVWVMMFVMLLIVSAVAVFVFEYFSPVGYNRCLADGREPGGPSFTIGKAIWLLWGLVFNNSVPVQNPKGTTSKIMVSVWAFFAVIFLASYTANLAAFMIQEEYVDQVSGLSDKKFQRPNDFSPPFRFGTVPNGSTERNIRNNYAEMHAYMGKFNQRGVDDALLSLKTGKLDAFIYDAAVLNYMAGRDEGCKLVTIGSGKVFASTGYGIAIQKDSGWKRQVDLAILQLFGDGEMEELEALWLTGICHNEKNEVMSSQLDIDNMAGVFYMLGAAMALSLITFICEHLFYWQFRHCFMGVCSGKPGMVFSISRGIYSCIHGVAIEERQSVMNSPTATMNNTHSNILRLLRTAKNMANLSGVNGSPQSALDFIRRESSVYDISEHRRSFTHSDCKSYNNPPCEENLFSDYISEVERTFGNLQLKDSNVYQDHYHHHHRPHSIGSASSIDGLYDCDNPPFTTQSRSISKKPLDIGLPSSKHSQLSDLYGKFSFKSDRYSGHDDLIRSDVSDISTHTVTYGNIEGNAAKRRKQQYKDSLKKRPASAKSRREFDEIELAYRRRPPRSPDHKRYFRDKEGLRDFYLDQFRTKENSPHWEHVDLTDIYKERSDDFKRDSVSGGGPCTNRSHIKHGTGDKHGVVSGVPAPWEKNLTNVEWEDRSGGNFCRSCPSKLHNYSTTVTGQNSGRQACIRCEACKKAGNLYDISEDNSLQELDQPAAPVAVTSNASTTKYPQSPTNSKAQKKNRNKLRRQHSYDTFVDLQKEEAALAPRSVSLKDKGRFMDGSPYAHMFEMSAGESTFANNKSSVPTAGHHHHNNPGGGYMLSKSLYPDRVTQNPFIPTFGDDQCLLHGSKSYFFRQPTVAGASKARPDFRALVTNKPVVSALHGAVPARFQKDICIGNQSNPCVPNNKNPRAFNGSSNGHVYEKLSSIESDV

GluN1/GluN2D receptor = molecular target: T4, GluN1/GluN2D receptor (Homo sapiens, UniProt O15399+Q05586); assay: Automated patch clamp (QPatch HTX) in presence of 1 mM extracellular magnesium; assay type: cell-based; conditions: 10 μM dextromethadone, 1 mM Mg2+
T4 construct: expressed in transfected cells; host or cells: CHO
T4 sequence (O15399 28-1336, other chains not shown): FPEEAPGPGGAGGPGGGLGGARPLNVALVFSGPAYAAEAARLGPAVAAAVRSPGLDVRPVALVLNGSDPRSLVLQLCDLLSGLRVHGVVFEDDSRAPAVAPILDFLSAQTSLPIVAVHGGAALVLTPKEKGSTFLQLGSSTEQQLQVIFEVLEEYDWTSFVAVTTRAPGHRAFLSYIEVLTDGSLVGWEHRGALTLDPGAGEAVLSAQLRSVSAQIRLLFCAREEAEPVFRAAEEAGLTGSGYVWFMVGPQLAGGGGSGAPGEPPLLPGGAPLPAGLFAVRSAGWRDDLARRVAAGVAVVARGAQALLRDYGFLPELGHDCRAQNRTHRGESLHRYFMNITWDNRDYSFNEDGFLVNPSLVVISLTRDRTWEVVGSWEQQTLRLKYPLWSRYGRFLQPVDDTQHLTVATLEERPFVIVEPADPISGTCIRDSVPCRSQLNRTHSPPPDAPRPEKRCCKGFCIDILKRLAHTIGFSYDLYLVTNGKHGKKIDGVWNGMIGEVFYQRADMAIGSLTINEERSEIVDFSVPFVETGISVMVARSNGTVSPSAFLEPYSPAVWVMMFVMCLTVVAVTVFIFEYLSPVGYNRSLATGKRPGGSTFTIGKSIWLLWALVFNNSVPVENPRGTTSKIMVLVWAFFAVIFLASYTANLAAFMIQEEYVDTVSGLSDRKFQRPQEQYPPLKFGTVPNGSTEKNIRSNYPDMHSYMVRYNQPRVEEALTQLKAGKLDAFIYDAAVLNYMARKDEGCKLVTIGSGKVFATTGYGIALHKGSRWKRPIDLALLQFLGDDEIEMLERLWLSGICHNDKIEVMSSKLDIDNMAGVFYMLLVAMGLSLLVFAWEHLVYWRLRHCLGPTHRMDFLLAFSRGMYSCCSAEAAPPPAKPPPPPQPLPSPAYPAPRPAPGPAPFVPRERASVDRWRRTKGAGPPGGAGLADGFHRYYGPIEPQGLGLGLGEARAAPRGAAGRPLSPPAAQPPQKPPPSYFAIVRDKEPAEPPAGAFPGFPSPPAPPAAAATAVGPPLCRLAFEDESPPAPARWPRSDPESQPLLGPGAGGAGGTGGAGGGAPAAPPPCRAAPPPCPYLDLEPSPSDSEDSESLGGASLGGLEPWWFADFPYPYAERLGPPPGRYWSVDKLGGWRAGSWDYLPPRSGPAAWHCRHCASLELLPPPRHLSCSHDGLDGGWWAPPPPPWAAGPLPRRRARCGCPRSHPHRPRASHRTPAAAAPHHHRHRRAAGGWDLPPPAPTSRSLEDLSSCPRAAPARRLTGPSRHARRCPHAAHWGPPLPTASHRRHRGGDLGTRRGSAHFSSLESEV
Description: Automated patch clamp experiments were performed in QPatch HTX (Sophion Bioscience A/S, Ballerup, Denmark) using CHO cells stably expressing recombinant diheteromeric human NMDAR. Cells were clamped at −80 mV holding potential in presence of 1 mM extracellular magnesium. Voltage protocol included a depolarizing 2 s step pulse to +60 mV, to check quality of the seal and cell NMDAR expression level, followed by a 2 s ramp back to holding potential.

5-HT2C receptor = molecular target: T5, 5-HT2C receptor (Homo sapiens, UniProt P28335); conditions: agonist; Rickli et al., 2018; cited from earlier work
T5 sequence (P28335 33-458): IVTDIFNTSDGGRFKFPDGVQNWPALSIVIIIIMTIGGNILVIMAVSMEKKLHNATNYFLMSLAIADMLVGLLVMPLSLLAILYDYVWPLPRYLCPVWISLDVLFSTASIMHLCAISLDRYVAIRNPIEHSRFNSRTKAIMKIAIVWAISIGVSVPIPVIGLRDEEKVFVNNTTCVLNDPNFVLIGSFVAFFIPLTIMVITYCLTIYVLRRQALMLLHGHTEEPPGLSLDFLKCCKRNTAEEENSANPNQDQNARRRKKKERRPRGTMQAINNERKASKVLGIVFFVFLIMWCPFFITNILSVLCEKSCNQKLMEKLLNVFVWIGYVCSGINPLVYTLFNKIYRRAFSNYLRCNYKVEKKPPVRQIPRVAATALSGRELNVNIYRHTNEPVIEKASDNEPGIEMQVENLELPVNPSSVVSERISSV

T1 sequence (O15399 28-1336, other chains not shown): as the sequence (O15399 28-1336, other chains not shown) above

SMILES: CCC(=O)C(C[C@H](C)N(C)C)(c1ccccc1)c1ccccc1 [Dextromethadone, dextromethadone]
- α, estimated cooperativity term ([1]; operational analysis for allosteric modulators): 0.22
- L-glutamate CRC HillSlope ([1]; with test item 49 nM): 1.3
- L-glutamate CRC LogEC50 ([1]; with test item 49 nM): −7.5
- L-glutamate CRC HillSlope ([1]; with test item 195 nM): 1.3
- L-glutamate CRC LogEC50 ([1]; with test item 195 nM): −7.5
- L-glutamate CRC HillSlope ([1]; with test item 781 nM): 1.7
- L-glutamate CRC LogEC50 ([1]; with test item 781 nM): −7.5
- L-glutamate CRC HillSlope ([1]; with test item 3.1 μM): 1.5
- L-glutamate CRC LogEC50 ([1]; with test item 3.1 μM): −7.4
- L-glutamate CRC HillSlope ([1]; with test item 12.5 μM): 1.1
- L-glutamate CRC LogEC50 ([1]; with test item 12.5 μM): −7.1
- L-glutamate CRC LogEC50 ([1]; with test item 50 μM): −6.9
- calcium entry induced by 0.04 μM L-glutamate [2]: significantly reduced
- calcium entry induced by 0.2 μM L-glutamate [2]: significantly reduced
- calcium entry induced by 10 μM L-glutamate [2]: significantly reduced
- calcium response (mean±SEM) ([3]; 0.04 μM L-Glu + 10 μM DXT): 0.2 ± 0.4
- calcium response (mean±SEM) ([3]; 0.04 μM L-Glu + 1000 μM QA + 10 μM DXT): 13 ± 1.0
- calcium response (mean±SEM) ([3]; 0.2 μM L-Glu + 10 μM DXT): 8.0 ± 0.5
- calcium response (mean±SEM) ([3]; 0.2 μM L-Glu + 100 μM QA + 10 μM DXT): 9.9 ± 0.8
- calcium response (mean±SEM) ([3]; 0.2 μM L-Glu + 1000 μM QA + 10 μM DXT): 13 ± 1.0
- % effect on calcium entry, 100 QA + 10 DXT ([3]; 100 μM QA + 10 μM DXT): −1.0 ± 0.8%
- calcium response (mean±SEM) ([3]; 1000 μM QA + 10 μM DXT): 12 ± 0.7
- % effect on calcium entry, 1000 QA + 10 DXT ([3]; 1000 μM QA + 10 μM DXT): 12 ± 0.7%
- calcium response (mean±SEM) ([3]; 1000 μM QA + 10 μg/ml GENT + 10 μM DXT): 21 ± 0.9
- calcium response (mean±SEM) ([3]; Table 41: 0.04 μM L-Glu + 10 μM DXT): 0.2 ± 0.4
- calcium response (mean±SEM) ([3]; Table 43: 0.2 μM L-Glu + 10 μM DXT): 8.0 ± 0.5
- residual current, % of pre-application level (GluN1/GluN2D receptor; 1 μM L-glutamate, −80 mV, control cells 102.5±[…]): 62.5±4.1%
- 10 μM or 1 μM L-glutamate elicited current (GluN1/GluN2D receptor; −30 mV to −80 mV): significantly reduced
- Ki (5-HT2C receptor): 1900 nM
